Measurements published in US20090286791A1, “Amide Compounds” (TAKEDA PHARMACEUTICAL COMPANY LIMITED, priority 2001, published 2009).

biological target: T1, human DGAT1 (Homo sapiens, UniProt O75907); assay: DGAT inhibitory activity: [14C]-triglyceride synthesis with DGAT1 high expression Sf9 microsome; type: biochemical; settings: 25 μM dioleoylglycerol, 25 μM [14C]-Oleoyl-CoA, 32° C., 20 min, read-out: hDGAT1 IC50
T1 construct: made in house; host or cells: Sf9 insect cells (baculovirus BAC-DGAT1, pFASTBAC1); microsome fraction
T1 sequence (O75907 1-488): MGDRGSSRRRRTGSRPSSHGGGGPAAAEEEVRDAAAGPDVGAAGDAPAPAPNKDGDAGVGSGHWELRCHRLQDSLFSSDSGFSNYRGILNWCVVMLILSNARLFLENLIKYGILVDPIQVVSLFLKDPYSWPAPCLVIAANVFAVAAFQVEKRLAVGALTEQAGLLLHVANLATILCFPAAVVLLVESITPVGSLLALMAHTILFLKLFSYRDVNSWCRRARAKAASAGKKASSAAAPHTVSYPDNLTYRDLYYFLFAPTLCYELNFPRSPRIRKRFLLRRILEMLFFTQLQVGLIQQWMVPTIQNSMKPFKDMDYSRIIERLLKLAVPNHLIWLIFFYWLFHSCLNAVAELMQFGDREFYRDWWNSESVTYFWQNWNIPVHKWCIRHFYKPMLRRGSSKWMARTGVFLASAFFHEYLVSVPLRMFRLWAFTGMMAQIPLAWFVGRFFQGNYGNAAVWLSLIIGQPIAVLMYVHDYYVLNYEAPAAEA
Experimental: The primer nucleotide sequence is shown below.
The PCR reaction was conducted using a KOD-plus kit (TOYOBO). The obtained PCR product was electrophoresed on agarose gel (1%), the DNA fragment amplified by PCR was recovered from the gel, and then digested with restriction enzymes EcoRI and SpeI. […] Furthermore, using BAC-TO-BAC Baculovirus Expression System (Invitrogen), recombinant baculovirus BAC-DGAT1 was prepared.
SF9 cells were sown at 1×10^6 cells/ml on Sf-900II SFM medium (1 L, Invitrogen) containing 10% fetal calf serum (Trace), 50 mg/L gentamicin (Invitrogen) and 0.1% Pluronic F-68 (Invitrogen), and shaking culture was performed using a 2 L volume Erlenmeyer flask at 27° C., 100 rpm. After culturing for 24 hrs, recombinant baculovirus BAC-DGAT1 (6.7 mL) was added, and the mixture was further cultured for 3 days. The culture medium was centrifuged at 2,000 rpm for 5 min to give virus-infected cells. The infected cells were washed with a phosphate buffered saline (Invitrogen), centrifuged under the same conditions, and the cells were preserved at −80° C. The cryopreserved cells were thawed in ice, suspended in buffer A (50 mM Tris buffer (30 mL, pH 7.4) containing 20% glycerol, 0.15 M NaCl) supplemented with Complete Protease Inhibitor (Boehringer), and ruptured 3 times with a Polytron homogenizer (Kinematica) at 20,000 rpm for 30 sec. The Sf9 microsome fractions were obtained by a conventional method and cryopreserved at −80° C. as a DGAT1 high expression Sf9 microsome.
As a DGAT1 reaction buffer, a solution having a composition of 100 mM Tris-HCl (pH 7.5), 250 mM sucrose, 150 mM MgCl2, 0.01% bovine serum albumin (BSA) was used. […] A mixture of 300 μL of chloroform:methanol (=1:2) was added to the reaction mixture to quench the reaction. The reaction mixture was sufficiently mixed and distilled water (200 μL) was added to partition the mixture between a chloroform layer (lower layer) and an aqueous layer (upper layer). […] The developed TLC plate was dried, contacted with a BAS imaging plate (manufactured by FUJIFIIM) and measured with BAS2500 (manufactured by FUJIFILM) 16 hr later to numerically show the amount of [^14C]-triglyceride (TG amount) produced during the reaction. The inhibitory rate was calculated by the following formula:
Inhibitory rate (%)=(1−(TG amount with addition of test compound−blank TG amount)/(control TG amount−blank TG amount))×100
The count of the triglyceride produced in the solution reacted without addition of the compound was used as a “control TG amount”, and the count of the triglyceride produced in the solution reacted without addition of the test compound and DGAT1 high expression Sf9 microsome was used as a “blank TG amount”.

First: CCOc1ccc(C(=O)NCCNC(=O)c2cn(-c3cccc(OCC)n3)nc2C(F)(F)F)cc1 [B6, N-(2-(4-ethoxybenzamido)ethyl)-1-(6-ethoxypyridin-2-yl)-3-(trifluorometh-yl)-1H-pyrazole-4-carboxamide]
Second: CCOc1ccc(C(=O)NCCNC(=O)c2cn(-c3ccc4[nH]ccc4c3)nc2C(F)(F)F)cc1 [Example B1, N-(2-(4-Ethoxybenzamido)ethyl)-1-(1H-indol-5-yl)-3-(trifluoromethyl)-1H-pyrazole-4-carboxamide]
The IC50 of the first is higher: 100 to 1000 nM for the first, under 100 nM for the second.

First: CCOc1ccc(C(=O)NC[C@@H](NC(=O)c2cn(-c3ccccc3)nc2C(F)(F)F)C(=O)OC)cc1 [C15]
Second: CCOc1ccc(C(=O)N2CCCC2CNC(=O)c2cn(-c3ccccc3)nc2C(F)(F)F)cc1 (stereo not shown) [Example C11, N-((1-(4-ethoxybenzoyl)pyrrolidin-2-yl)methyl)-1-phenyl-3-(trifluoromethyl)-1H-pyrazole-4-carboxamide]
The IC50 of the first is lower: 100 to 1000 nM for the first, 1000 to 10000 nM for the second.

Compared with `CN(C)CCNc1ccc(C(=O)NCCNC(=O)c2cn(-c3ccccc3)nc2C(F)(F)F)cn1` [Example A11, 6-(2-(dimethyl-amino)ethylamino)-N-(2-(1-phenyl-3-(trifluoromethyl)-1H-pyrazole-4-carboxamido)ethyl) nicotinamide], `CN(C)c1ccc(C(=O)NCCNC(=O)c2cn(-c3ccccc3)nc2C(F)(F)F)cn1` [Example A15, 6-(dimethylamino)-N-(2-(1-phenyl-3-(trifluoromethyl)-1H-pyrazole-4-carboxamido)ethyl)nicotinamide] is lower in IC50: 1000 to 10000 nM for the first, 100 to 1000 nM for the second.

Compared with `O=C(NCCNC(=O)c1cn(-c2ccccc2)nc1C(F)(F)F)c1ccc(-n2cccn2)nc1` [Example A12, N-(2-(1-phenyl-3-(trifluoromethyl)-1H-pyrazole-4-carboxamido)ethyl)-6-(1H-pyrazol-1-yl) nicotinamide], `CC(=O)Nc1ccc(C(=O)NCCNC(=O)c2cn(-c3ccccc3)nc2C(F)(F)F)cn1` [Example A99, 6-Acetamido-N-(2-(1-phenyl-3-(trifluoromethyl)-1H-pyrazole-4-carboxamido)ethyl)nicotinamide] is higher in IC50: under 100 nM for the first, 1000 to 10000 nM for the second.

`CCCCc1ccc(C(=O)NCCNC(=O)c2cn(-c3ccccc3)nc2C(F)(F)F)nc1` [Example A24, 5-butyl-N-(2-(1-phenyl-3-(trifluoromethyl)-1H-pyrazole-4-carboxamido)ethyl)picolinamide] and `CCCc1cc(CCC)c(C(=O)NCCNC(=O)c2cn(-c3ccccc3)nc2C(F)(F)F)cn1` [Example A76, N-(2-(1-phenyl-3-(trifluoro-methyl)-1H-pyrazole-4-carboxamido)ethyl)-4,6-di-propylnicotinamide] fall in the same range of IC50: 100 to 1000 nM for the first, 100 to 1000 nM for the second.

Compared with `O=C(NCCNC(=O)c1cn(-c2ccccc2)nc1C(F)(F)F)c1ccc(OCCC(F)(F)F)nc1` [Example A42, N-(2-(1-phenyl-3-(trifluoromethyl)-1H-pyrazole-4-carboxamido)ethyl)-6-(3,3,3-trifluoropropoxy)nicotinamide], `CN(C)c1nn(-c2ccccc2)cc1C(=O)NCCNC(=O)c1ccc(OCC(F)(F)F)nc1` [Example A58, N-(2-(3-(dimethylamino)-1-phenyl-1H-pyrazole-4-carboxamido)ethyl)-6-(2,2,2-trifluoroethoxy) nicotinamide] is higher in IC50: under 100 nM for the first, 1000 to 10000 nM for the second.

`O=C(NCCNC(=O)c1cn(-c2ccccc2)c2ccccc12)c1ccc(OCC(F)(F)F)nc1` [Example A53, 1-phenyl-N-(2-(6-(2,2,2-trifluoroethoxy)nicotinamido)ethyl)-1H-indole-3-carboxamide] and `O=C(NCCNC(=O)c1cn(C(=O)c2ccccc2)c2ccccc12)c1ccc(OCC(F)(F)F)nc1` [Example A82, 1-benzoyl-N-(2-(6-(2,2,2-trifluoroethoxy)nicotinamido)ethyl)-1H-indole-3-carboxamide] cannot be ordered by IC50: under 100 nM for the first, under 100 nM for the second.

`COc1nn(-c2ccccc2)cc1C(=O)NCCNC(=O)c1ccc(OCC(F)(F)F)nc1` [Example A55, N-(2-(3-methoxy-1-phenyl-1H-pyrazole-4-carboxamido)ethyl)-6-(2,2,2-trifluoroethoxy) nicotinamide] and `O=C(NCCNC(=O)c1cn(-c2ccccc2)nc1C(F)(F)F)c1ccc(-c2ncon2)nc1` [Example A96, 6-(1,2,4-Oxadiazol-3-yl)-N-(2-(1-phenyl-3-(trifluoromethyl)-1H-pyrazole-4-carboxamido)ethyl)nicotinamide] fall in the same range of IC50: 100 to 1000 nM for the first, 100 to 1000 nM for the second.

First: O=C(NCCNC(=O)c1cn(-c2ccccc2)nc1C(F)(F)F)c1ccc(S(=O)(=O)c2ccccc2)nc1 [Example A86, N-(2-(1-Phenyl-3-(trifluoromethyl)-1H-pyrazole-4-carboxamido)ethyl)-6-(phenylsulfonyl)nicotinamide]
Second: CC(C)c1nc(-c2ccc(C(=O)NCCNC(=O)c3cn(-c4ccccc4)nc3C(F)(F)F)cn2)no1 [Example A103, 6-(5-isopropyl-1,2,4-oxadiazol-3-yl)-N-(2-(1-phenyl-3-(trifluoromethyl)-1H-pyrazole-4-carboxamido)ethyl)nicotinamide]
The IC50 of the first is higher: 100 to 1000 nM for the first, under 100 nM for the second. The second is the more potent here.

First: N#Cc1cc(C(=O)NCCNC(=O)c2cn(-c3ccccc3)nc2C(F)(F)F)cnc1OCC(F)(F)F [Example A87, 5-Cyano-N-(2-(1-phenyl-3-(trifluoromethyl)-1H-pyrazole-4-carboxamido)ethyl)-6-(2,2,2-trifluoroethoxy)nicotinamide]
Second: O=C(NCCNC(=O)c1cn(-c2ccccc2)nc1C(F)(F)F)c1ccc(-c2noc(C(F)(F)F)n2)nc1 [Example A98, N-(2-(1-Phenyl-3-(trifluoromethyl)-1H-pyrazole-4-carboxamido)ethyl)-6-(5-(trifluoromethyl)-1,2,4-oxadiazol-3-yl)nicotinamide]
The IC50 of the first is higher: 100 to 1000 nM for the first, under 100 nM for the second.

`CCOc1ccc(C(=O)NCCNC(=O)c2cc(-c3ccccc3)cc(-c3ccccc3)n2)cc1` [Example D1, N-(2-(4-Ethoxybenzamido)ethyl)-4,6-diphenylpicolinamide] and `CCOc1ccc(C(=O)NCCNC(=O)c2nn(-c3ccccc3)nc2C)cc1` [Example D6, N-(2-(4-ethoxybenzamido)ethyl)-5-methyl-2-phenyl-1H-1,2,3-triazole-4-carboxamide] fall in the same range of IC50: 1000 to 10000 nM for the first, 1000 to 10000 nM for the second.
